The source of these data is patent publication US10377783B2, “Methods and compounds for enhancing contrast in magnetic resonance imaging (MRI)” (priority 2015, dated 2019).

The structures appear in SMILES notation. Read-outs that look alike come from different tables or passages of the source.

The nature of series [1]: Relaxivity measurements (T1 and T2 relaxation times, Bruker minispec mq60/mq20). The series is classed as physicochemical. As to conditions: aqueous solution, 37° C. The method, then: T1 and T2 relaxation times were measured at the STTARR Innovation Centre in Toronto, Canada using a Bruker minispec mq60, and at the Bruker Showroom in Milton, Canada using a Bruker minispec mq20. Measurements were carried out on a series of 6 aqueous dilutions between 0-5 mM.
The T1 and T2 relaxation times of the 8 soluble, pure complexes were measured in aqueous solution at 37° C., at both 20 and 60 MHz.

Series [2] concerns primary rat renal proximal tubule epithelial cells (RPTECs). As to the kind of experiment: In vitro toxicity, MTT assay. The series is classed as cell-based. As to conditions: for IC50: rat RPTECs, MTT, read-out: Inhibitory concentration IC50; for cytotoxicity: 10 h time point, compared with 4 h. As to the method:
Gadodiamide (Selleckchem, Lot #02) was used as the reference compound. It is one of the 8 Gd(III)-based MRI agents approved for use in Canada (trade name: Omniscan™).
The test articles and reference compound were weighed and dissolved in the incubation medium to give the highest test concentration of 30 mM. The solution was filter sterilized and diluted to the remaining test concentrations of 10 mM, 3.3 mM, 1.1 mM, 0.36 mM, 0.12 mM and 0.04 mM.
Cryopreserved primary rat renal proximal tubule epithelial cells (RPTECs) (ScienCell Research Laboratories, Carlsbad, Calif.) were used for the study. The rat RPTECs were thawed completely at 37° C., and transferred to epithelial cell medium (ScienCell Research Laboratories, Carlsbad, Calif.) followed by plating in poly-L-lysine coated 96-well plates. The RPTECs were allowed to recover and grow in a cell culture incubator (37° C., humidified atmosphere of 5% carbon dioxide and 95% air) for 3 additional days with a medium change every alternate day.
Following 3 days of plating, the RPTECs were washed once with serum free epithelial cell medium (ScienCell Research Laboratories, Carlsbad, Calif.) followed by treatment with the test, reference or control articles for 2, 4, 10 or 24 h. All treatments were performed in triplicate.
Cellular viability and metabolic activity were assessed by using the 3-(4,5-dimethylthiazol-2-yl)-2,5-diphenyl tetrazolium bromide (MTT) uptake assay. A 10× stock of the MTT dye was prepared in phosphate buffered saline (PBS). An aliquot of dye was added 2 hrs before the intended time point to achieve a final 1× concentration, after which incubation (37° C., humidified atmosphere of 5% carbon dioxide and 95% air) continued until the desired time point. For the 2 hr time point, the aliquot of dye was added immediately after the test articles. Following incubation, all media was aspirated from the wells and the plates were allowed to dry. The resulting formazan crystals were dissolved in DMSO using an orbital shaker, and the absorbance at 570 nm was measured using a Victor ^3V multilabel plate reader (reference wavelength=650 nm).
The inhibitory concentration (IC50, the concentration resulting in 50% toxicity) was determined by plotting log concentration vs. relative viability, followed by non-linear regression of the curve using Graph Pad Prism 5.0.
An in vitro toxicity study was performed in order to evaluate the cytotoxic potential of several of the agents in primary rat renal proximal tubule epithelial cells (RPTECs), prior to performing in vivo studies. The Mn^II and Gd^III complexes of L1, L2 and L6 (complexes 1, 2, 5, and 7-9) were evaluated at seven concentrations (30 mM, 10 mM, 3.3 mM, 1.1 mM, 0.36 mM, 0.12 mM and 0.04 mM) after 2, 4, 10 and 24 hours of treatment in rat RPTECs. The MTT assay was used as an indicator of viability. The nephrotoxic potential of the test articles was compared to the toxicity observed in the presence of the approved agent Gadodiamide. The results are summarized in Table 4, where the inhibitory concentration (IC50, the concentration resulting in 50% toxicity) was determined by plotting log concentration vs. relative viability.

Series [3] has as its system male Sprague-Dawley rats. In words: In vivo acute toxicity. The arrangement: species or system rat. The method, then: Compound 1 (aq., 12.5 mM) was injected intravenously into 4 male rats (Sprague Dawley Crl:SD, 315-340 g) at a dosage of 0.02 mmol/kg following anaesthesia with 5% isoflurane. […] Body weight measurements and hematology were performed on days −1, 7 and 14. Compound 6 (aq., 6.25 mM) was injected intravenously into 8 male rats (Sprague Dawley Crl:SD, 327-365 g) at a dosage of 0.01 mmol/kg following anaesthesia with 5% isoflurane. […] Body weight measurements and hematology were performed on days −1, 1 and 8. Following euthanasia, the heart, lungs, liver, kidneys, spleen, thyroid and pituitary glands were grossly examined during necropsy, and samples of the brain, heart (compound 1 only), lungs, liver, kidneys, spleen and thymus (compound 1 only) were microscopically evaluated during histopathological examination.
The acute toxicities of 1 and 6 were studied in 8 week old male Sprague-Dawley rats. The toxicity of 1 was studied over a period of 14 days, in four rats; while the toxicity of 6 was studied over a period of 8 days, in 8 rats. Compound 1 was injected intravenously at a dosage of 0.02 mmol/kg (c=12.5 mM), while 6 was injected at a dosage of 0.01 mmol/kg (c=6.25 mM). These dosages were chosen because the dosage for the only Mn^II-based compound approved in North America, Teslascan, was 0.005 mmol/kg; and the inventors were anticipating a […] degree of toxicity.

Consider `CC1=NCCOCCOCCN=C(C)c2cccc1n2.O.O.[Cl-].[Cl-].[Mn+2]` [Compound 2, [MnL2Cl2].2H2O], for which the r1 relaxivity in series [1] (20 MHz) was 3.58 s⁻¹ mM⁻¹; in series [1] (60 MHz) it was 2.78 s⁻¹ mM⁻¹. Moreover, the IC50 in series [2] (2 hr treatment) amounted to 3.88 mM; in series [2] (4 hr treatment), 2.56 mM; in series [2] (10 hr treatment) it was 14.7 mM; in series [2] (24 hr treatment), 0.68 mM. Besides, in series [2], the “cytotoxicity” value is “exhibited a slight reduction in toxicity”.

As for `CC1=NCCNCCNCCN=C(C)c2cccc1n2.O.O.[Cl-].[Cl-].[Mn+2]` [Compound 1, [MnL1Cl2].2H2O], the “acute toxicity (overall)” value in series [3] (0.02 mmol/kg iv, 4 rats, 14 days) is “minimally- to non-acutely toxic”. Also, in series [3] (at the studied dosages), the “toxicity (summary of the in vivo studies)” value is reported as “negligible toxicity”. In addition, the results for the r1 relaxivity in series [1] (20 MHz) and in series [1] (60 MHz) were 3.78 s⁻¹ mM⁻¹ and 2.76 s⁻¹ mM⁻¹, respectively. Further, the “nephrotoxicity” value in series [2] (2 and 4 h of treatment, 0.04-30 mM) was “did not show significant nephrotoxicity”. For the same compound, the “cytotoxicity” value in series [2] is recorded as “did not display significant cytotoxicity”. For the same compound, in series [2] (24 h of treatment), the “nephrotoxic effects” value is “exhibiting the least nephrotoxic effects”. The IC50 in series [2] (24 hr treatment) is 5.47 mM.
